Results reported in paper PMC6273899 (Molecules, 2016).
≈ marks a conversion by molar mass, not a printed value. Where “and” joins values, the source holds several entries; their conditions need not be identical. Equal entries are not always repeated. Where two headings read alike, the source gives them in different places. Square brackets hold non-standard residues; d marks the D form. Ends that are not written are not given here. Peptide text beside a SMILES is read from it.

Columns and labels:
[1] = tested on: Candida albicans (NCPF 1467); type: cell-based
Description: (§1) The antimicrobial activity was evaluated by minimal inhibitory concentration (MIC) and minimum bactericidal concentration (MBC) assays using broth microdilution methods and in vitro assays against reference strains of microorganisms; a Gram-positive bacterium, a Gram-negative bacterium, and a yeast, respectively, Staphylococcus aureus (NCTC 10788), Escherichia coli (NCTC 10418), and Candida albicans (NCPF 1467). Briefly, the reference strains were incubated in Muller-Hinton Broth (MHB) until logarithmic phase growth was achieved which was assessed by the optical density (OD) of the culture at 550 nm. The cultures were subjected to dilution to obtain 1 × 10^6 colony-forming units (cfu)/mL for bacteria or to 5 × 10^5 cfu/ml for the yeast. Serial peptide dilutions and cultures were loaded into a 96-well microtiter plate obtaining suspensions containing 1–512 mg/L tested peptides. After incubating at 37 °C for 24 h, MIC values were determined as the lowest concentration which produced a similar OD value to the negative control (medium only). Then 10 μL of inhibited culture from each well was subcultured on Muller-Hinton Agar (MHA) and incubated for 24 h. The MBC values were defined as the minimum concentration which effected no growth.

[2] = tested on: Escherichia coli (NCTC 10418); type: cell-based
Description: as §1

[3] = tested on: Staphylococcus aureus (NCTC 10788); type: cell-based
Description: as §1

trypsin [4] = details: 1 mg trypsin with 1 mg peptide in 1 mL PBS, MALDI-TOF/MS
Description: (§2) Two different media were used to appraise the stability and degradation sites of peptides, trypsin, and horse serum, respectively. For the trypsin assay, 1 mg of trypsin (Sigma-Aldrich) with 1 mg of peptide were incubated in 1 mL PBS for 72 h. Whilst for horse serum, the medium was prepared with 25% horse serum/RPMI medium (v/v) and incubated at 37 °C for 15 min. Peptide stock solution was added into the serum medium to obtain a solution having a final concentration of 1 mg/mL and test samples were kept at 37 °C for 72 h. At different time points, 20 μL samples were transferred into 100 μL of 0.25% (v/v) TFA/water which caused reaction termination. For the serum-digestion, samples were kept at 4 °C and centrifuged at 13,000 rpm for 15 min and the supernatants were then analysed by MALDI-TOF/MS.

[5] = 25% horse serum/RPMI medium (v/v), 1 mg/mL peptide, 37 °C up to 72 h, MALDI-TOF/MS
Description: as §2

[6] = tested on: defibrinated horse erythrocytes; assay: Haemolysis assay; type: cell-based; details: 2% (v/v) horse erythrocytes in PBS, 1 to 512 mg/L peptide, 37 °C 120 min, OD 550 nm; 100% = 1% Triton X-100
Description: The haemolytic activity of peptides against defibrinated horse erythrocytes (TCS Biosciences Ltd., Botolph Claydon, Buckingham, UK) was determined by comparing the degree of lysis after incubating tested peptides with prewashed red cell suspensions for 2 h. A 2% suspension (v/v) was formed with prewashed defibrinated horse erythrocytes and sodium phosphate-buffered saline (PBS). Peptides were incubated with this 2% suspension in a final concentration range from 1 to 512 mg/L and all the samples were kept at a constant 37 °C for 120 min. Negative controls and positive controls were PBS alone and PBS containing Triton X-100 (Sigma-Aldrich, St. Louis, MO, USA), respectively. The sample supernatants were used to assess the extent of haemolysis by measuring the OD value at 550 nm.

[7] = 25% horse serum/RPMI medium (v/v); details: 37 °C, up to 72 h
trypsin [8] = assay: 1 mg of trypsin (Sigma-Aldrich) with 1 mg of peptide in 1 mL PBS; details: up to 72 h
[9] = 10 μL of inhibited culture subcultured on Muller-Hinton Agar, 24 h, minimum concentration with no growth
[10] = broth microdilution, Muller-Hinton Broth, 5 × 10^5 cfu/ml, 1–512 mg/L peptide, 37 °C 24 h, OD read-out, NCPF 1467
[11] = broth microdilution, Muller-Hinton Broth, 1 × 10^6 cfu/mL, 1–512 mg/L peptide, 37 °C 24 h, OD read-out, NCTC 10418
[12] = broth microdilution, Muller-Hinton Broth, 1 × 10^6 cfu/mL, 1–512 mg/L peptide, 37 °C 24 h, OD read-out, NCTC 10788

## CC[C@H](C)[C@H](NC(=O)[C@H](C)NC(=O)[C@@H](CCCCN)NC(=O)[C@@H]1CCCN1C(=O)[C@@H](NC(=O)[C@H](CC(C)C)NC(=O)[C@H](CO)NC(=O)[C@H](CC(C)C)NC(=O)[C@@H](N)Cc1ccccc1)[C@@H](C)CC)C(=O)N[C@H](CCCCN)C(=O)N[C@@H](C)C(=O)N[C@H](C(=O)NCC(=O)N[C@H](C(=O)N[C@H](CCCCN)C(=O)N[C@@H](C)C(=O)N[C@H](CCCCN)C(=O)N[C@H](CCCCN)C(=O)N[C@@H](Cc1ccccc1)C(N)=O)C(C)C)C(C)C [PS-PT2a] (H-FLSLIP[dK]AI[dK]AVGV[dK]A[dK][dK]F-NH2)
[1]; [9]
  MBC C. albicans: 256 mg/L (≈ 124 µM)
[1]; [10]
  MIC C. albicans: 256 mg/L (≈ 124 µM)
[2]; [9]
  MBC E. coli: >512 mg/L
[2]; [11]
  MIC E. coli: >512 mg/L
[3]; [9]
  MBC S. aureus: >512 mg/L
[3]; [12]
  MIC S. aureus: >512 mg/L
Trypsin [4]; up to 72 h
  Catabolites generated by incubation with trypsin (species detected, incl. intact 1–19): 1–19 FLSLIPKAIKAVGVKAKKF
  time stable in trypsin solution: ≥ 48 h
[5]; pre-incubated 37 °C 15 min
  stability in serum (in words): relatively stable after 72 h

## CC[C@H](C)[C@H](NC(=O)[C@H](C)NC(=O)[C@@H](CCCCN)NC(=O)[C@@H]1CCCN1C(=O)[C@@H](NC(=O)[C@H](CC(C)C)NC(=O)[C@H](CO)NC(=O)[C@H](CC(C)C)NC(=O)[C@@H](N)Cc1ccccc1)[C@@H](C)CC)C(=O)N[C@@H](CCCCN)C(=O)N[C@@H](C)C(=O)N[C@H](C(=O)NCC(=O)N[C@H](C(=O)N[C@@H](CCCCN)C(=O)N[C@@H](C)C(=O)N[C@@H](CCCCN)C(=O)N[C@@H](CCCCN)C(=O)N[C@@H](Cc1ccccc1)C(N)=O)C(C)C)C(C)C [PS-PT2b] (H-FLSLIP[dK]AIKAVGVKAKKF-NH2)
[1]; [9]
  MBC C. albicans: 64 mg/L (≈ 31.1 µM)
[1]; [10]
  MIC C. albicans: 32 mg/L (≈ 15.6 µM)
[2]; [9]
  MBC E. coli: 256 mg/L (≈ 124 µM)
[2]; [11]
  MIC E. coli: 256 mg/L (≈ 124 µM)
[3]; [9]
  MBC S. aureus: 512 mg/L (≈ 249 µM)
[3]; [12]
  MIC S. aureus: 256 mg/L (≈ 124 µM)
Trypsin [4]; up to 72 h
  degradation by trypsin (in words): hydrolytically-degraded after a 30 s incubation
Trypsin [4]
  scissile site with trypsin: Lys^10-Ala^11
[5]
  Catabolites generated by incubation with serum (species detected, incl. intact 1–19): 1–17 […] and 1–19 FLSLIPKAIKAVGVKAKKF
  incubation time in serum after which fragments 1–15, 1–14 and 1–17 were observed: > 48 h
[5]; pre-incubated 37 °C 15 min
  stability in serum (in words): strong stability

## FLSLIPHAIKAVGVHAKHF-NH2 [PS-PT1]
[1]; NCPF 1467, 24 h
  MBC C. albicans: 256 mg/L
  MIC C. albicans: 128 mg/L
[2]; NCTC 10418, 24 h
  MBC E. coli: >512 mg/L
  MIC E. coli: 512 mg/L
[3]; NCTC 10788, 24 h
  MBC S. aureus: 256 mg/L
  MIC S. aureus: 128 mg/L

## FLSLIPHAINAVGVHAKHF-NH2 [PS-PT]
[1]; NCPF 1467, 24 h
  MBC C. albicans: >512 mg/L
  MIC C. albicans: 512 mg/L
[2]; NCTC 10418, 24 h
  MBC E. coli: >512 mg/L
  MIC E. coli: >512 mg/L
[3]; NCTC 10788, 24 h
  MBC S. aureus: >512 mg/L
  MIC S. aureus: 512 mg/L

## FLSLIPKAIKAVGVKAKKF-NH2 [PS-PT2] [listing 1 of 2 here]
[1]; [9]
  MBC C. albicans: 32 mg/L
[1]; [10]
  MIC C. albicans: 16 mg/L
[2]; [9]
  MBC E. coli: >512 mg/L
[2]; [11]
  MIC E. coli: 512 mg/L
[3]; [9]
  MBC S. aureus: 64 mg/L
[3]; [12]
  MIC S. aureus: 64 mg/L
[6]
  haemolytic effect (in words): negligible haemolytic effects
Trypsin [4]; up to 72 h
  time in which the original peptide was completely cleaved by trypsin: ≤ 30 s
Trypsin [4]
  scissile site with trypsin: Lys^7-Ala^8
[5]; pre-incubated 37 °C 15 min
  time after which peptide was completely degraded in serum: ≤ 30 min

## FLSLIPKAIKAVGVKAKKF-NH2 [PS-PT2] [listing 2 of 2 here]
[7]
  cleaved bond: Lys7-Ala8, major
  fragment found: 1–16 fragment (FLSLIPKAIKAVGVKA-), minor, 1 min
Trypsin [8]
  cleaved bond: Lys7-Ala8, major, 30 s
  fragment found: 1–17 FLSLIPKAIKAVGVKAK, 4 min

## FLSLIPKAIKAVGVKAKKF-NH2 [PS-PT2a]
[7]
  fragment found: 2–7 fragments (LSLIPK), minor, 4 h
Trypsin [8]
  not cleaved: stable in trypsin solution for up to 48 h

## FLSLIPKAIKAVGVKAKKF-NH2 [PS-PT2b]
[7]
  fragment found: 1–17 (FLSLIPKAIKAVGVKAK), >48 h
Trypsin [8]
  cleaved bond: Lys10-Ala11, 30 s
